Experiment: In-vitro testing of glucose units in a glucose solution before and after mixing with the agent
Assay type: biochemical
Conditions: 10 mls of 10% glucose solution (more than 600 mg/dl before)
Procedure: Our methods were: In-vitro testing to determine glucose units in a glucose solution before and after mixing with Amzylite against other known hypoglaycaemic agents (metformin, sulfonylurea, etc) including insulin. 10 mls of 10% concentrated glucose solution tested for glucose concentration using glucose oxidase and or hexokinase (glucometers can also be used). […] One or two capsule of Amzylite was added to the glucose solution. In-vivo: 141 type I and type II diabetics with diabetes neuropathy, in addition to 9 diabetics with renal incompetency, 15 diabetics with chronic wounds to extremities, 2 diabetics had progressive gas gangrene, all patients had neuropathy with impaired sensations to distal extremities and one none diabetic with renal failure were identified. 31 out of 141 were excluded for incomplete records. 8 self discharged. 128 classified into 4 groups: 33 on insulin therapy; 20 on insulin and oral hypoglycaemic agents, 58 on only oral hypoglycaemic therapy, 16 on diet control only. 9 with high creatinine levels, 15 with chronic wounds, 2 had gas gangrene to distal extremities and one non diabetic had renal incompetency and was on dialysis. Laboratory tests were determined before and after starting Amzylite. No placebo was given.
In-vitro testing to determine glucose units in a glucose solution before and after mixing with Amzylite against other known hypoglaycaemic agents (metformin, sulfonylurea, etc) including insulin. 10 mls of 10% concentrated glucose solution tested for glucose concentration using glucose oxidase and or hexokinase (glucometers can also be used). […] One capsule of Amzylite added to the glucose solution. For In-vivo study to determine the effectiveness of Amzylite as treatment for D.M. 141 patients with type I and type II D.M were treated with Amzylite. 31 patients were excluded for incomplete records. 8 patients' self withdrawn. […] Fasting and 2 hours postprandial blood glucose levels (HbA1c checked in some but not all patients) were determined before starting Amzylite. […] Saliva enzymes function tests were determined for disaccharides and polysaccharides in all patients. […] Improvement in patients' symptoms, daily glucose readings (fasting/2 hour postprandial) and HbA1c were set up as target and evaluation criteria. […] Changes were also determined by […]. 1—Improvement with complete recovery, 2—Significant improvement of symptoms and readings (range 70-170 mg/dl and below 200 mg/dl), 3—Improved symptoms but no change on readings, 4—Improved readings but no improvement on symptoms, 5—No change on symptoms or readings, 6—Higher or lower glucose readings. […]

[1] = one capsule of Amzylite, second study
[2] = one or two capsules of Amzylite, first study

Compound | In vitro glucose readings after mixing [1] | In vitro glucose readings after mixing [2]
insulin | No changes | No changes
CN(C)C(=N)N=C(N)N [metformin] | No changes | No changes

Reference: patent publication US20090317371A1, “Method, Composition, and Device, for the Treatment of Amylase Malfunctions / Inactivity in Association with Saccharides (Mainly Polysaccharides) Based Diseases” (priority 2008, published 2009)
